Laboratory results: the NIST ThermoML archive (doi:10.1021/acs.jced.8b01135)
Numbers after ± are expanded uncertainties.

Test: xn = mol fraction of the nth substance listed
Conditions: 102 kPa, Liquid; for speed of sound: Frequency=3 MHz, Single path-length method; for mass density: Vibrating tube method; for viscosity: Concentric cylinders viscometry

CCCCCCCC1CCCCC1 [heptylcyclohexane] + CCCCCCCCCCCC
Conditions | mass density, 288.15 K [kg/m3] | mass density, 293.15 K [kg/m3] | mass density, 298.15 K [kg/m3] | mass density, 303.15 K [kg/m3] | speed of sound, 288.15 K [m/s] | speed of sound, 293.15 K [m/s] | speed of sound, 298.15 K [m/s] | speed of sound, 303.15 K [m/s] | viscosity, 293.15 K [mPa·s] | viscosity, 303.15 K [mPa·s]
x1 = 0.1002 | 758.6 ± 0.71 | 754.98 ± 0.71 | 751.36 ± 0.71 | 747.74 ± 0.71 | 1324.4 ± 0.8 | 1304.9 ± 0.8 | 1285.5 ± 0.8 | 1266.3 ± 0.8 | 1.57 ± 0.02 | 1.33 ± 0.02
x1 = 0.201 | 764.82 ± 0.71 | 761.22 ± 0.71 | 757.61 ± 0.71 | 754.01 ± 0.71 | 1331.8 ± 0.8 | 1312.4 ± 0.8 | 1293.1 ± 0.8 | 1273.9 ± 0.8 | 1.67 ± 0.02 | 1.41 ± 0.02
x1 = 0.3 | 771.01 ± 0.71 | 767.42 ± 0.71 | 763.84 ± 0.71 | 760.25 ± 0.71 | 1339.3 ± 0.8 | 1319.9 ± 0.8 | 1300.8 ± 0.8 | 1281.8 ± 0.8 | 1.76 ± 0.02 | 1.48 ± 0.02
x1 = 0.3998 | 777.16 ± 0.71 | 773.59 ± 0.71 | 770.01 ± 0.71 | 766.42 ± 0.71 | 1346.8 ± 0.8 | 1327.3 ± 0.8 | 1308 ± 0.8 | 1288.8 ± 0.8 | 1.87 ± 0.02 | 1.57 ± 0.02
x1 = 0.5002 | 783.44 ± 0.71 | 779.88 ± 0.71 | 776.32 ± 0.71 | 772.75 ± 0.71 | 1354.4 ± 0.8 | 1335.1 ± 0.8 | 1316 ± 0.8 | 1297 ± 0.8 | 1.99 ± 0.02 | 1.66 ± 0.02
x1 = 0.5999 | 789.63 ± 0.71 | 786.08 ± 0.71 | 782.53 ± 0.71 | – | 1362 ± 0.8 | 1342.8 ± 0.8 | 1323.6 ± 0.8 | 1304.7 ± 0.8 | 2.12 ± 0.02 | 1.74 ± 0.02
x1 = 0.6998 | 795.81 ± 0.71 | 792.27 ± 0.71 | 788.73 ± 0.71 | – | 1369.8 ± 0.8 | 1350.4 ± 0.8 | 1331.1 ± 0.8 | 1312.1 ± 0.8 | 2.26 ± 0.02 | 1.85 ± 0.02
x1 = 0.8001 | 802.09 ± 0.71 | 798.57 ± 0.71 | 795.04 ± 0.71 | – | 1377.6 ± 0.9 | 1358.3 ± 0.9 | 1339.3 ± 0.9 | 1320.3 ± 0.9 | 2.42 ± 0.02 | 1.97 ± 0.02
x1 = 0.8998 | 808.24 ± 0.71 | 804.73 ± 0.71 | 801.21 ± 0.71 | – | 1385.6 ± 0.9 | 1366.2 ± 0.9 | 1346.9 ± 0.9 | 1327.9 ± 0.9 | 2.6 ± 0.02 | 2.11 ± 0.02
x1 = 1 | 814.51 ± 0.71 | 811 ± 0.71 | 807.49 ± 0.71 | – | 1393.6 ± 0.9 | 1374.2 ± 0.9 | 1355.1 ± 0.9 | 1336.1 ± 0.9 | 2.8 ± 0.02 | 2.25 ± 0.02
